Several values for one entry are separate records, joined by “and”; a condition that tells them apart may be missing. Equal values may be shown once.
Assays:
rats = assay: Plantar Heat Stimulation Test after subcutaneous injection into the hindpaw; format: in vivo; conditions: rat, 100 μl subcutaneously into one hindpaw; for antinociceptive effect (paw withdrawal latency, treated vs untreated paw): cutoff 22 seconds
Method: Rats are assessed for response to thermal stimulation using the Plantar Heat Stimulation Test (i.e., radiant heat) (Planar Analgesia Instrument, Ugo Basile, Italy) by measuring paw withdrawal latency. 100 μl of pureform Isoflurane or 100 μl of 2% Lidocaine was injected subcutaneously into the planar surface of one hindpaw of each rat. For each rat, the untreated, contralateral hindpaw served as its own control.
After the rats acclimated for 15 minutes under acrylic boxes that allow minimal movement, a heat source was positioned beneath the mid-plantar surface of the hind paw. Withdrawal latency was defined as the period of time from the beginning of the thermal stimulation to the brisk withdrawal of the hind paw. To avoid tissue damage, a cutoff time of 22 seconds was set. Thermal stimulation was applied three times to each hind paw at an interstimulus interval of 3-5 minutes. Thermal withdrawal latency was assessed before and after the treatment. An increase in the withdrawal latency in the treated paw compared to the control paw was assessed as analgesic activity of the tested formulation.
For statistical comparison, student paired t-test analysis was used. Differences were considered significant at P<0.05 (# P<0.05 isoflurane versus control n=4; * P<0.05 lidocaine versus control n=3).

Sprague-Dawley rats = assay: Hotplate test (thermal withdrawal latency) after intrathecal injection of volatile anesthetic; format: in vivo; conditions: rat; for Thermal withdrawal latency, Average / Thermal withdrawal latency, Group Average: 2 microliters intrathecal; for Thermal withdrawal latency, Average: average per rat; for Thermal withdrawal latency, Group Average: group of four rats, saline control 8.33 seconds; for thermal latency time (analgesic effect): intrathecally delivered dose of 2 microliters
Method: This study was designed to evaluate efficacy of direct intrathecal injection of volatile anesthetic in reducing pain and providing analgesia. The study was conducted over a one (1) month period using the volatile anesthetics isoflurane and sevoflurane injected directly intrathecally or dissolved in saline as shown in the studies below. The subject animal used was the rat, since the rat has a well-established model of pain/analgesia testing. In particular, Sprague-Dawley rats weighing over 350 gm were used. The rats were anesthetized with pentobarbital (50 mg/kg), and the anesthetic depth of the animals was determined by corneal reflex and paw withdrawal reflex to a noxious stimulus.
[…]. A midline surgical dissection of the posterior neck muscles was performed to obtain access to the occipito-atlantoid membrane. This membrane was identified and then dissected. A sterile polyethylene catheter was introduced in the subarachnoid space until the lumbar enlargement of the spinal cord (approximately 7-8 cm measured in each animal). The surgical wound was closed, first suturing the neck muscles with 3-0 silk sutures and then closing the skin incision with staples.
After the surgery, the rats were moved to their cages and a radiant lamp was placed over the cages so that the rats would not undergo anesthetic-induced hypothermia. The rats were continuously monitored from the end of the surgery until they were fully awake. Rats showing any motor impairment after surgery were euthanized.
On the fifth day after surgery, those rats without wound infection or motor dysfunction were transported to the pain behavioral lab to enter the intrathecal study with volatile anesthetics. Twelve rats were selected for the study. All these rats had intrathecal catheters. Isoflurane (1-chloro-2,2,2-trifluoroethyl difluoromethyl ether) and sevoflurane (fluoromethyl 2,2,2-trifluoro-1-(trifluoromethyl)ethyl ether) were used as the halogenated ether compounds. Both of these are halogenated volatile anesthetics, with isoflurane manufactured by Baxter and sevoflurane manufactured by Abbott Laboratories. The 12 rats were divided into 3 groups of four rats each for study A and B.
In the second group, 2 microliters of isoflurane was injected via the intrathecal catheter into each rat. This catheter was also flushed with preservative-free normal saline. This group was then subjected to pain behavioral testing.
In the third group, 2 microliters of sevoflurane was injected via the intrathecal catheter into each rat. This catheter was also flushed with preservative-free normal saline. This group was then subjected to pain behavioral testing.
A “hotplate” behavioral test was used to evaluate pain perception and analgesia. The pain behavioral testing model used in these studies have been well established by Tony Yaksh. (See, for example Chaplan et al., 1994, J. Neurosci. Methods, 53:55-63; Yaksh et al., 2001, J. Appl. Physiol., 90:2386-2402; Kim and Chung, 1992, Pain, 50:355-363.; Sorkin et al., 2001, Anesthesiology, 95:965-973). This test involves determining how quickly a rat will withdraw its hind paw in response to a noxious stimulus such as a radiant heat source placed directly underneath its paw. This time for withdrawal is known as “thermal withdrawal latency”.
Rats were transferred for testing onto a modified Hargreaves apparatus with a heated glass plate maintained at 25° C. (see Hargreaves et al., 1998, Pain, 32:77-88). A focused projection bulb below the plate was aimed at the mid-plantar surface of the paw. A photodiode-activated timer measured the withdrawal latency, and a cutoff time of 25 seconds was used to prevent tissue damage. Thermal withdrawal latency to radiant heat was measured at 5 minutes and 30 minutes after each intrathecal injection. Each paw was tested three times, and the results were averaged. The below data was collected for both the right and left hind paws: […]

[1] = Isoflurane stability: weighing remaining isoflurane in uncapped vials over time; format: physicochemical; conditions: uncapped vial in fume hood
Method: In the Examples that follow, the stability of isoflurane in the described compositions was determined in two ways. First, the compositions were examined for the presence of phase separation at the macroscopic level. Secondly, isoflurane content of the compositions was determined by weighing the remaining isoflurane in the composition when they were left uncapped over time. […] The other vials received varying amounts of isoflurane. They were left uncapped in the hood. Over time, the vials were weighed to see if the isoflurane stayed in the composition or had evaporated. The amount evaporated over time in the vehicle control was subtracted from that in the isoflurane-containing composition. The pure form of isoflurane is a volatile anesthetic. In order to assess the volatility of isoflurane, two vials received the indicated amounts of pure form isoflurane. The vials were placed in the chemical fume hood and left uncapped. The vials were weighed at the indicated times to determine the amount of evaporated isoflurane. As it is shown in the table below 0.7893 g isoflurane was evaporated within 3 hours, while 3.4825 g isoflurane took approximately 8 hrs to evaporate completely. These amounts of isoflurane are similar to the amounts of isoflurane that were used to prepare the isoflurane compositions in the Examples that follow.

Structure (SMILES) | antinociceptive effect (paw withdrawal latency, treated vs untreated paw) (rats) | antinociceptive effect began at (rats; time after administration) [min] | antinociceptive effect peaked at (rats; time after administration) [min] | antinociceptive effect returned to baseline levels at (rats; time after administration) [min] | Thermal withdrawal latency, Average (Sprague-Dawley rats; 5 minutes after injection) | Thermal withdrawal latency, Group Average (Sprague-Dawley rats; 5 minutes after injection) [s] | Thermal withdrawal latency, Average (Sprague-Dawley rats; 30 minutes after injection) | thermal latency time (analgesic effect) (Sprague-Dawley rats) | duration of antinociceptive effect (rats) | time until isoflurane was evaporated ([1]; 0.7893 g pure form) [h] | time to evaporate completely ([1]; 3.4825 g pure form)
CCN(CC)CC(=O)Nc1c(C)cccc1C [Lidocaine] | significant antinociceptive effect | 5 | 15 | 45 |  |  |  |  |  |  | 
FC(F)OC(Cl)C(F)(F)F (centres unmarked) [Isoflurane, 1-chloro-2,2,2-trifluoroethyl difluoromethyl ether] | significant antinociceptive effect | 25 |  |  | 19.25 s and 18.21 s and 18.63 s and 17.95 s | 18.51 | 9.48 s and 8.93 s and 10.52 s and 9.21 s | significantly increased | continued throughout the experiment | ≤ 3 | approximately 8 hrs
FCOC(C(F)(F)F)C(F)(F)F [Sevoflurane, fluoromethyl 2,2,2-trifluoro-1-(trifluoromethyl)ethyl ether] |  |  |  |  | 14.65 s and 13.82 s and 13.14 s and 12.98 s | 13.65 | 8.61 s and 8.35 s and 8.89 s and 9.54 s | significantly increased |  |  | 
